pIC50: −log10 of the molar value. Where two headings read alike, the source gives them in different places.
Key:
[1] = target: CDK1/Cyclin E1 (Homo sapiens, UniProt P06493); assay: NanoBRET live-cell target engagement, CDK1-NanoLuc/Cyclin E1 in HEK-293; type: binding; details: 10µM
[2] = target: CDK15/Cyclin Y (Homo sapiens, UniProt Q96Q40); assay: NanoBRET live-cell target engagement, NanoLuc-CDK15/Cyclin Y in HEK-293; type: binding; details: 10µM
[3] = target: CDK13/Cyclin K (Homo sapiens, UniProt Q14004); assay: NanoBRET live-cell target engagement, CDK13-NanoLuc/Cyclin K in HEK-293; type: binding; details: 10µM
Chain of CDK13/Cyclin K (O75909 whole entry): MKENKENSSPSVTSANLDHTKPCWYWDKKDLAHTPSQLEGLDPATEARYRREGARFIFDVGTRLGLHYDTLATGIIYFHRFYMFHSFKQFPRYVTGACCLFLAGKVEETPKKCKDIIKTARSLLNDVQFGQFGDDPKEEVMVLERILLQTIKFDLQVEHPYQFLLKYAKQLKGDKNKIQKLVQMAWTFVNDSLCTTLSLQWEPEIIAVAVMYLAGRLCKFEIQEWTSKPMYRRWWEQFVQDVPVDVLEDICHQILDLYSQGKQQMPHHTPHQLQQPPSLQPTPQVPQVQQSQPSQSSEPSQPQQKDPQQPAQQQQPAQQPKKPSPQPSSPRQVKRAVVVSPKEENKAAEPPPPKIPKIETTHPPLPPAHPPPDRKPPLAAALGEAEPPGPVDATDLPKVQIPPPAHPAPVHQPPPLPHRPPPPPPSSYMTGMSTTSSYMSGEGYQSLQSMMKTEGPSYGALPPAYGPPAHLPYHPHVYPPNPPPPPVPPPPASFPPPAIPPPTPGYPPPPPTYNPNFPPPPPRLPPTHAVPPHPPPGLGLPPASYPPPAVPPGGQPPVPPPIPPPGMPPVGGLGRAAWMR
Chain of CDK13/Cyclin K (Q14004 other isoform, or with tags, fused parts or gaps): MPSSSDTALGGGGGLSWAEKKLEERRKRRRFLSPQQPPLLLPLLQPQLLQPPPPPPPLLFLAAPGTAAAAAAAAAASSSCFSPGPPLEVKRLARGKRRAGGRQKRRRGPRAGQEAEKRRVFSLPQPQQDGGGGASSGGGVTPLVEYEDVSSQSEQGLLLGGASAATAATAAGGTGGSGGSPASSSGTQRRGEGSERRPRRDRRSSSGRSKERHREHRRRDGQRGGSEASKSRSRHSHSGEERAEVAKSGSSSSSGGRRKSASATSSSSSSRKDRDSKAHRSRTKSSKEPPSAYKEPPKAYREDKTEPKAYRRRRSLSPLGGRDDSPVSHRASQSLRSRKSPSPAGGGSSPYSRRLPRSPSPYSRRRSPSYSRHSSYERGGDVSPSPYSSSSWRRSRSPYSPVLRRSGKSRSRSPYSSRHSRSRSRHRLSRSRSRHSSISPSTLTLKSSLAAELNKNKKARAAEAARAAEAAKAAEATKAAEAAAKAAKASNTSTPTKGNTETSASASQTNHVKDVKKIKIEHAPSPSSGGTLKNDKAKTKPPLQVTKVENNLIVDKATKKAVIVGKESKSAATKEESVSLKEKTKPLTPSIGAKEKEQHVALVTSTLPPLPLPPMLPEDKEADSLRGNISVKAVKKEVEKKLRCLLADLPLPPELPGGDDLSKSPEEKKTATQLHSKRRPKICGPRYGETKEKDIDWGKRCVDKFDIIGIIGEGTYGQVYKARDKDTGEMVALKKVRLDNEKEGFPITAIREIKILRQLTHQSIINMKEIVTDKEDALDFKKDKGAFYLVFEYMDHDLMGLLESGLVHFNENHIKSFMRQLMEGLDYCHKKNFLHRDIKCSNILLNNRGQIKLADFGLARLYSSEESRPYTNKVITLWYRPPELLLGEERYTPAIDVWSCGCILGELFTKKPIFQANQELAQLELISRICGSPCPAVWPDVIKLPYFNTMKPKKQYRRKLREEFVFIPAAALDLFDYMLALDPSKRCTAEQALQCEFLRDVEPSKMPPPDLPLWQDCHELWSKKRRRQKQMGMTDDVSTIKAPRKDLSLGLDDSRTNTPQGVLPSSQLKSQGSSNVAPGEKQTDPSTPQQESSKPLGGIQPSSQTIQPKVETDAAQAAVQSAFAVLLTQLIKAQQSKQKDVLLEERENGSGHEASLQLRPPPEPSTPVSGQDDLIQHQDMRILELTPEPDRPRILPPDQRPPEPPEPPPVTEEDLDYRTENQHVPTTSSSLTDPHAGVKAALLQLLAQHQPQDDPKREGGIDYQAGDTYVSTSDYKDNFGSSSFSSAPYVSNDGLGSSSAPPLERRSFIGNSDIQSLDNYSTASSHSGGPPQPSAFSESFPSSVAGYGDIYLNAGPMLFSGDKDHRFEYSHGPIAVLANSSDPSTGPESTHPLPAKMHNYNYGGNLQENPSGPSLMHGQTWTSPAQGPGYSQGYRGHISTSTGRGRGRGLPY

[4] = target: CDK12/Cyclin K (Homo sapiens, UniProt Q9NYV4); assay: NanoBRET live-cell target engagement, CDK12-NanoLuc/Cyclin K in HEK-293; type: binding; details: 10µM
Chain of CDK12/Cyclin K (Q9NYV4 1-1481 isoform Q9NYV4-2): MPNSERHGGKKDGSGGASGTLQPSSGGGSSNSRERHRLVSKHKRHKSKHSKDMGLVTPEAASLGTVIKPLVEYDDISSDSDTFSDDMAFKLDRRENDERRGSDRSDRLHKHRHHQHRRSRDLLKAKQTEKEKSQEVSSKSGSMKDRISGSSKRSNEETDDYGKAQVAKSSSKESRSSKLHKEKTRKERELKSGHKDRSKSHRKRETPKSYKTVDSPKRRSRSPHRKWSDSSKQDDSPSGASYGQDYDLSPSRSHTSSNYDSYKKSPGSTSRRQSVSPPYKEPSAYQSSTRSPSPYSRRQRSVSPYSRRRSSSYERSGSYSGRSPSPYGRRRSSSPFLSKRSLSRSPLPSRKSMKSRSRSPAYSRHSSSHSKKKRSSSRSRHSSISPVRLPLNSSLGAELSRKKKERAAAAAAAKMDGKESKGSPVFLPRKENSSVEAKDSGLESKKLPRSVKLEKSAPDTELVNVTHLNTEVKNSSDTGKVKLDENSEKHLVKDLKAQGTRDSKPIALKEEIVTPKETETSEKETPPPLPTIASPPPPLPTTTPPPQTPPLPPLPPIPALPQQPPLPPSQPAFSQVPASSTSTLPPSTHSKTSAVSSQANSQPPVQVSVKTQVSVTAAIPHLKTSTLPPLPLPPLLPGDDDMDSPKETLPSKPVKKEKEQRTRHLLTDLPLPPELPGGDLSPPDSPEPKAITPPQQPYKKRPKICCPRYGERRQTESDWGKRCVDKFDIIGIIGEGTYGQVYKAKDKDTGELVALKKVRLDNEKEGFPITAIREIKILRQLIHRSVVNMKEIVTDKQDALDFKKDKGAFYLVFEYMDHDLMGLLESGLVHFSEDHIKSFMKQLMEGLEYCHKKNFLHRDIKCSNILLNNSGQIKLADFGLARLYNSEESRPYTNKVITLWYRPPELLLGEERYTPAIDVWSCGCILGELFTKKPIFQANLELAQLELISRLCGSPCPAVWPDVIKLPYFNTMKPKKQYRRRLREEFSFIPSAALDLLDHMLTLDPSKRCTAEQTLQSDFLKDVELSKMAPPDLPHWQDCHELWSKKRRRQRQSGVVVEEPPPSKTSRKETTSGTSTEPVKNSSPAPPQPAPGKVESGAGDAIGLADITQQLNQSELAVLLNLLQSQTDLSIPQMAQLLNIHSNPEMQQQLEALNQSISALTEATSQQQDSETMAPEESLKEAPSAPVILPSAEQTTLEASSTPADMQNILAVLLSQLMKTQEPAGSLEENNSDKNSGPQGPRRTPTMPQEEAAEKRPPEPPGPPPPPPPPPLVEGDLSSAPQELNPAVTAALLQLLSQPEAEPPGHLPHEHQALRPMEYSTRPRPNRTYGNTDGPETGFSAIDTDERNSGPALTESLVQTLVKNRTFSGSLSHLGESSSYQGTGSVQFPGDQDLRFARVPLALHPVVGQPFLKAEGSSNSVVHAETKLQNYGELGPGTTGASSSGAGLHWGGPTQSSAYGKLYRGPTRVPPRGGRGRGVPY
Chain of CDK12/Cyclin K (O75909 whole entry partner): as the sequence (O75909 whole entry) above

[5] = target: CDK10/Cyclin L2 (Homo sapiens, UniProt Q15131); assay: NanoBRET live-cell target engagement, CDK10-NanoLuc/Cyclin L2 in HEK-293; details: 10µM
[6] = target: CDK20/Cyclin H (Homo sapiens, UniProt Q8IZL9); assay: NanoBRET live-cell target engagement, NanoLuc-CDK20/Cyclin H in HEK-293; type: binding; details: 10µM
[7] = target: CDK16/Cyclin Y (Homo sapiens, UniProt Q00536); assay: NanoBRET live-cell target engagement, CDK16-NanoLuc/Cyclin Y in HEK-293; type: binding; details: 10µM
[8] = target: CDK11B/Cyclin L2 (Homo sapiens, UniProt P21127); assay: NanoBRET live-cell target engagement, CDK11B-NanoLuc/Cyclin L2 in HEK-293; type: binding; details: 10µM
[9] = target: CDK7 (Homo sapiens, UniProt P50613); assay: NanoBRET live-cell target engagement, NanoLuc-CDK7 in HEK-293; type: binding; details: 10µM
Chain of CDK7 (P50613 whole entry): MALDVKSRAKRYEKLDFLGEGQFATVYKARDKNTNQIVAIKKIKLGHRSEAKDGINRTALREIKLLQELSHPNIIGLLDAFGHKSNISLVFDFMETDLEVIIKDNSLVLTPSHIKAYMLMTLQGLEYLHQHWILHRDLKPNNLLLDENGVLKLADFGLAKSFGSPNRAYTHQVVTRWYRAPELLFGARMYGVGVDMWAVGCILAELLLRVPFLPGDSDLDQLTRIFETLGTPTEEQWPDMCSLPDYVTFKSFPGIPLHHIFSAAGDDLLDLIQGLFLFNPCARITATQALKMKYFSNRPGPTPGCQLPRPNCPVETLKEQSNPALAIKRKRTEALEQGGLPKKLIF

[10] = target: CDK5/CDK5R1 (Homo sapiens, UniProt Q00535); assay: NanoBRET live-cell target engagement, CDK5-NanoLuc/CDK5R1 in HEK-293; type: binding; details: 10µM
[11] = target: CDK18/Cyclin Y (Homo sapiens, UniProt Q07002); assay: NanoBRET live-cell target engagement, CDK18-NanoLuc/Cyclin Y in HEK-293; type: binding; details: 10µM
[12] = target: CDK2/Cyclin E1 (Homo sapiens, UniProt P24941); assay: NanoBRET live-cell target engagement, CDK2-NanoLuc/Cyclin E1 in HEK-293; type: binding; details: 10µM
[13] = target: CDK6/Cyclin D1 (Homo sapiens, UniProt Q00534); assay: NanoBRET live-cell target engagement, NanoLuc-CDK6/Cyclin D1 in HEK-293; type: binding; details: 10µM
[14] = target: CDK14/Cyclin Y (Homo sapiens, UniProt O94921); assay: NanoBRET live-cell target engagement, CDK14-NanoLuc/Cyclin Y in HEK-293; type: binding; details: 10µM
[15] = target: CDK4/Cyclin D1 (Homo sapiens, UniProt P11802); assay: NanoBRET live-cell target engagement, NanoLuc-CDK4/Cyclin D1 in HEK-293; type: binding; details: 10µM
[16] = target: CDK9/Cyclin K (Homo sapiens, UniProt P50750); assay: NanoBRET live-cell target engagement, NanoLuc-CDK9/Cyclin K in HEK-293; type: binding; details: 10µM
Chain of CDK9/Cyclin K (P50750 whole entry): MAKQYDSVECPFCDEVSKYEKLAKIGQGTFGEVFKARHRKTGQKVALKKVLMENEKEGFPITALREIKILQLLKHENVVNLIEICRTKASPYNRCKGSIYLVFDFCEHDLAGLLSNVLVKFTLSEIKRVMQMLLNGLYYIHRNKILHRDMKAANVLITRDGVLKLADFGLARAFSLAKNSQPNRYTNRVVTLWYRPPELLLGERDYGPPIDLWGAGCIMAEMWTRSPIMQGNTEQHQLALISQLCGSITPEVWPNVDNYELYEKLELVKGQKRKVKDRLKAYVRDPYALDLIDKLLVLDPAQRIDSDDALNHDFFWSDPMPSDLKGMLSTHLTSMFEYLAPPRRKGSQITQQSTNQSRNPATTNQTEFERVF
Chain of CDK9/Cyclin K (O75909 whole entry partner): as the sequence (O75909 whole entry) above

[17] = target: CDK17/Cyclin Y (Homo sapiens, UniProt Q00537); assay: NanoBRET live-cell target engagement, CDK17-NanoLuc/Cyclin Y in HEK-293; type: binding; details: 10µM
[18] = target: CDK8/Cyclin C (Homo sapiens, UniProt P49336); assay: NanoBRET live-cell target engagement, NanoLuc-CDK8/Cyclin C in HEK-293; type: binding; details: for pIC50: read-out: CDK8/C IC50
Chain of CDK8/Cyclin C (P49336 whole entry): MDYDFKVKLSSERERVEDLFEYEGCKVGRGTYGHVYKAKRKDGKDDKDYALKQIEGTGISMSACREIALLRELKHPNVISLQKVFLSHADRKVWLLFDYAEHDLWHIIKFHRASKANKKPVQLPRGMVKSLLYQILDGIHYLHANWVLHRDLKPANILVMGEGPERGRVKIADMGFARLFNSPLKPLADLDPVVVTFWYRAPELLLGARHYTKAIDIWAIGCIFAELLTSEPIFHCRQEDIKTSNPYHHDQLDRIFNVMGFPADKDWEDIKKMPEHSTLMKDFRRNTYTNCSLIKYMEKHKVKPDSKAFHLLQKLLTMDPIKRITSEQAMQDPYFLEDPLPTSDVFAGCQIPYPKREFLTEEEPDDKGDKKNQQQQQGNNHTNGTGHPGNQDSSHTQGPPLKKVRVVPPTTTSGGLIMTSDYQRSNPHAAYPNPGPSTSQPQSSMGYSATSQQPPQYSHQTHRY
Chain of CDK8/Cyclin C (P24863 whole entry partner): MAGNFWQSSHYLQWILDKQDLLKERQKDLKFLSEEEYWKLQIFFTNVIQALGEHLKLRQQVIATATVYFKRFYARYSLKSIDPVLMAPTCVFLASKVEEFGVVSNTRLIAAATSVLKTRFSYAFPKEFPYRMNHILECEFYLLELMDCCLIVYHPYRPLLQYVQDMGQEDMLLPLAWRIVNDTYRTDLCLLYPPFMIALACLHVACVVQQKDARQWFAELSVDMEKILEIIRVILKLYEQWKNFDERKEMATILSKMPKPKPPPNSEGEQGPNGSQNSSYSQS

[19] = target: CDK3/Cyclin E1 (Homo sapiens, UniProt Q00526); assay: NanoBRET live-cell target engagement, CDK3-NanoLuc/Cyclin E1 in HEK-293; type: binding; details: 10µM
[20] = target: CDK19/Cyclin C (Homo sapiens, UniProt Q9BWU1); assay: NanoBRET live-cell target engagement, NanoLuc-CDK19/Cyclin C in HEK-293
[21] = target: T1, CDK11A/Cyclin L2 (Homo sapiens, UniProt Q9UQ88); assay: NanoBRET live-cell target engagement, CDK11A-NanoLuc/Cyclin L2 in HEK-293; type: binding; details: 10µM
T1 sequence (Q9UQ88 1-783): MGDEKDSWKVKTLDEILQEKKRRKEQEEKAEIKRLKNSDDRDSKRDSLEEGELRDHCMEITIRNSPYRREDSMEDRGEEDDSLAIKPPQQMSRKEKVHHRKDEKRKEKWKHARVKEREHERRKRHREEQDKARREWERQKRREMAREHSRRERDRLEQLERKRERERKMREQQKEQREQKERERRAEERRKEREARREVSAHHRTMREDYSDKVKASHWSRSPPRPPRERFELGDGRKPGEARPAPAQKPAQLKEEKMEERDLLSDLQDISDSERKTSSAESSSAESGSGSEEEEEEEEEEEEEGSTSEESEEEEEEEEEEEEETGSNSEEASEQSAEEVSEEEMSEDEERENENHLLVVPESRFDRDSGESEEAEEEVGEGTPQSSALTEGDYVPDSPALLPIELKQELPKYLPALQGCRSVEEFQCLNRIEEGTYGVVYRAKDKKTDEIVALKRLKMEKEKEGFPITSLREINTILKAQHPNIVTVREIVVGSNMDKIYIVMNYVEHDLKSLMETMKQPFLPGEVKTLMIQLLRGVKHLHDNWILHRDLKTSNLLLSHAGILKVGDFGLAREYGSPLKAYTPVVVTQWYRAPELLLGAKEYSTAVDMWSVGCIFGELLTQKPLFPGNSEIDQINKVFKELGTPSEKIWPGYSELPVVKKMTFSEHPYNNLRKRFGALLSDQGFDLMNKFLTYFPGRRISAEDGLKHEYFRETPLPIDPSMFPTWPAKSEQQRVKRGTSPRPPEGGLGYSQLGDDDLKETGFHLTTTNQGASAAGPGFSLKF

Which results are given for `Cc1c(Br)c(Br)c2c3c1nc(N1CCNCC1)n3CCC2.Cl` [SEL 120-34A]?
CDK1/E1 Inhibition at 10µM (%) ([1]; average of experiments): 37.6%; CDK1/E1 Inhibition at 10µM (%) ([1]; independent experiment 1): 21.0%; CDK1/E1 Inhibition at 10µM (%) ([1]; independent experiment 2): 54.1%; CDK15/Y Inhibition at 10µM (%) ([2]; average of experiments): 37.3%; CDK15/Y Inhibition at 10µM (%) ([2]; independent experiment 1): 38.3%; CDK15/Y Inhibition at 10µM (%) ([2]; independent experiment 2): 36.3%; CDK13/K Inhibition at 10µM (%) ([3]; average of experiments): 36.8%; CDK13/K Inhibition at 10µM (%) ([3]; independent experiment 1): 29.4%; CDK13/K Inhibition at 10µM (%) ([3]; independent experiment 2): 44.2%; CDK12/K Inhibition at 10µM (%) ([4]; average of experiments): 44.4%; CDK12/K Inhibition at 10µM (%) ([4]; independent experiment 1): 40.8%; CDK12/K Inhibition at 10µM (%) ([4]; independent experiment 2): 48.0%; CDK10/L2 Inhibition at 10µM (%) ([5]; average of experiments): 33.9%; CDK10/L2 Inhibition at 10µM (%) ([5]; independent experiment 1): 26.3%; CDK10/L2 Inhibition at 10µM (%) ([5]; independent experiment 2): 41.4%; CDK20/H Inhibition at 10µM (%) ([6]; independent experiment 1): 7.8%; CDK20/H Inhibition at 10µM (%) ([6]; independent experiment 2): 31.3%; CDK16/Y Inhibition at 10µM (%) ([7]; independent experiment 1): 51.2%; CDK16/Y Inhibition at 10µM (%) ([7]; independent experiment 2): 12.7%; CDK11b/L2 Inhibition at 10µM (%) ([8]; average of experiments): 38.1%; CDK11b/L2 Inhibition at 10µM (%) ([8]; independent experiment 1): 35.0%; CDK11b/L2 Inhibition at 10µM (%) ([8]; independent experiment 2): 41.2%; CDK7 Inhibition at 10µM (%) ([9]; average of experiments): 37.0%; CDK7 Inhibition at 10µM (%) ([9]; independent experiment 1): 34.4%; CDK7 Inhibition at 10µM (%) ([9]; independent experiment 2): 39.7%; CDK5/CDK5R1 Inhibition at 10µM (%) ([10]; average of experiments): 46.5%; CDK5/CDK5R1 Inhibition at 10µM (%) ([10]; independent experiment 1): 31.2%; CDK5/CDK5R1 Inhibition at 10µM (%) ([10]; independent experiment 2): 61.8%; CDK18/Y Inhibition at 10µM (%) ([11]; average of experiments): 39.4%; CDK18/Y Inhibition at 10µM (%) ([11]; independent experiment 1): 47.0%; CDK18/Y Inhibition at 10µM (%) ([11]; independent experiment 2): 31.9%; CDK2/E1 Inhibition at 10µM (%) ([12]; average of experiments): 22.7%; CDK2/E1 Inhibition at 10µM (%) ([12]; independent experiment 1): 24.3%; CDK2/E1 Inhibition at 10µM (%) ([12]; independent experiment 2): 21.2%; CDK6/D1 Inhibition at 10µM (%) ([13]; average of experiments): 31.6%; CDK6/D1 Inhibition at 10µM (%) ([13]; independent experiment 1): 10.1%; CDK6/D1 Inhibition at 10µM (%) ([13]; independent experiment 2): 53.1%; CDK14/Y Inhibition at 10µM (%) ([14]; average of experiments): 26.1%; CDK14/Y Inhibition at 10µM (%) ([14]; independent experiment 1): 21.7%; CDK14/Y Inhibition at 10µM (%) ([14]; independent experiment 2): 30.4%; CDK4/D1 Inhibition at 10µM (%) ([15]; average of experiments): 37.4%; CDK4/D1 Inhibition at 10µM (%) ([15]; independent experiment 1): 12.4%; CDK4/D1 Inhibition at 10µM (%) ([15]; independent experiment 2): 62.4%; CDK9/K Inhibition at 10µM (%) ([16]; average of experiments): 71.2%; CDK9/K Inhibition at 10µM (%) ([16]; independent experiment 1): 54.9%; CDK9/K Inhibition at 10µM (%) ([16]; independent experiment 2): 87.6%; CDK17/Y Inhibition at 10µM (%) ([17]; average of experiments): 38.7%; CDK17/Y Inhibition at 10µM (%) ([17]; independent experiment 1): 45.5%; CDK17/Y Inhibition at 10µM (%) ([17]; independent experiment 2): 32.0%; CDK8/C Inhibition at 10µM (%) ([18]; average of experiments): 97.3%; CDK8/C Inhibition at 10µM (%) ([18]; independent experiment 1): 96.1%; CDK8/C Inhibition at 10µM (%) ([18]; independent experiment 2): 98.6%; pIC50 ([18]; average (± SEM where n=3)): 7.12; pIC50 ([18]; independent experiment 1): 7.14; pIC50 ([18]; independent experiment 2): 7.11; CDK3/E1 Inhibition at 10µM (%) ([19]; average of experiments): 33.7%; CDK3/E1 Inhibition at 10µM (%) ([19]; independent experiment 1): 26.5%; CDK3/E1 Inhibition at 10µM (%) ([19]; independent experiment 2): 40.8%; CDK19/C Inhibition at 10µM (%) ([20]; average of experiments): 99.2%; CDK19/C Inhibition at 10µM (%) ([20]; independent experiment 1): 96.4%; CDK19/C Inhibition at 10µM (%) ([20]; independent experiment 2): 102.0%; pIC50 ([20]; read-out: CDK19/C IC50, independent experiment 1): 6.92; pIC50 ([20]; read-out: CDK19/C IC50, independent experiment 2): 6.85; pIC50 ([20]; read-out: CDK19/Y IC50, average (± SEM where n=3)): 6.89; CDK11a/L2 Inhibition at 10µM (%) ([21]; average of experiments): 43.7%; CDK11a/L2 Inhibition at 10µM (%) ([21]; independent experiment 1): 31.1%; CDK11a/L2 Inhibition at 10µM (%) ([21]; independent experiment 2): 56.3%
